The source of these data is patent publication US4888357A, “Antiarthritic β-cycloalkyl-β-oxopropionitriles” (Bristol-Myers Company, priority 1988, dated 1989).

Assay [1] has as its system adjuvant-induced arthritis. To be noted: J. Med. Chem., 1979, 22:1385-9; cited from earlier work.
Assay [2] relates to adjuvant-induced polyarthritis (hind paw volume). Put plainly: Modified developing adjuvant arthritis in rats (adjuvant-induced polyarthritis, AIP). The class given is in vivo, male Lewis rats. Particulars: for inhibition in vivo at 100 mg/kg: 100 mg/kg once daily p.o. d. 1-8. How it is done: A. Modified Developing Adjuvant Arthritis in Rats
This test is based on the procedure originally described by Pearson (Proc. Soc. Biol. Med., 1956, pp 91-5). Each experimental group used six male Lewis rats weighing approx. 250 gm. Arthritis was produced by a single intradermal injection of Mycobacterium butyricum (0.6 mg in 0.1 ml mineral oil) into the base of the tail. Test compounds were administered orally, once daily, starting on the day of inoculation (day 1) through day 8. The initial dosage was reduced during this period when side effects were observed. The paw volume (average of two hind paws) was measured by the merccury displacement method at least twice weekly during the course of the experiment (40 to 42 days). The efficacy of a compound was expressed as the percent reduction of hind paw volume of treated vs. untreated rats using the following equation: [formula]
^a once daily, p.o., from d. 1-8 (unless otherwise specified).
^b % Inhibition of paw edema: 0 = <25; + = 25- <40; ++ = 40-<60; +++

In assay [3] the test system is delayed-type hypersensitivity (DTH) response. Put plainly: Delayed type hypersensitivity (DTH) response to Mycobacterium butyricum challenge in rats. The class given is in vivo, male Lewis rats. The procedure:
C. Delayed Type Hypersensitivity (DTH)
Male Lewis rats were immunized on Day 1. Mycobacterium butyricum in mineral oil (6 mg/ml) was injected into the base of the tail at 0.1 ml per rat. A negative control group receiving an equal amount of mineral oil was included. Drug therapy was administered orally from day one to day eight. Delayed type hypersensitivity was tested on day 9. Purified protein derivative (Tuberculin PPD, Statens Seruminstitute, Tuberculin Department, DK-2300 Copenhagen S, Denmark) was dissolved in phosphate buffered saline at 2.5 mg/ml. Twenty μl (50 μg) of the PPD solution was injected intradermally into the right ear of the rat, and the conralateral ear received 20 μl of the phosphate buffered saline vehicle. Forty-eight hours after injection the thickness of both ears was measured to the nearest 0.01 mm using a hand held caliper. The difference between the thickness of right and left ears was defined as the delta value for each rat. Group means and standard errors were compared using a Dunnett's 2-tail test.

[4] abbreviates: Rattus norvegicus, po, 480 h, read d. 20-22, read-out: AIP Inhib. score (% Inhibition of paw edema) d. 20-22.
Setting [5] is: Rattus norvegicus, po, 960 h, read d. 40-42, read-out: AIP Inhib. score (% Inhibition of paw edema) d. 40-42.

Structures are written as SMILES. Where two headings read alike, the source gives them in different places. Where only a bound is given, the exact number is not on record here.

On to `N#CCC(=O)c1ccccc1` [Benzoylacetonitrile (I), Benzoylacetonitrile], for which, in assay [1], the “inhibition of adjuvant-induced arthritis in rats” value was “effective inhibitors of adjuvant-induced arthritis in rats”.

In the case of `CNC(=O)C(C#N)C(=O)C1CC1` (stereo not drawn) [Example 1, β-Cyclopropyl-β-oxo-α-methylcarbamoylpropionitrile], the inhibition in vivo at 100 mg/kg in assay [2] (setting [4]) and in assay [2] (setting [5]) was 80 to 100% in each case. Further, the “% Reduction-DTH” value in assay [3] (10 mg/kg/d × 8 d. p.o.) stood at 20%; in assay [3] (30 mg/kg/d × 8 d. p.o.) it was 41%; in assay [3] (60 mg/kg/d × 8 d. p.o.) it was 56%. For the same molecule, the “immunomodulating activity (ability to reduce delayed hypersensitivity)” value in assay [3] (arthritic rats) was “exhibits immunomodulating activity”.

`CN(C)C(=O)C(C#N)C(=O)C1CC1` (stereo not drawn) [Example 3, β-Cyclopropyl-α-dimethylcarbamoyl-β-oxopropionitrile]: the inhibition in vivo at 100 mg/kg in assay [2] (setting [4]) and in assay [2] (setting [5]) was 60 to 80% throughout.

Turning to `C#CCNC(=O)C(C#N)C(=O)C1CC1` (stereo not drawn) [Example 4, β-Cyclopropyl-β-oxo-α-propargylcarbamoylpropionitrile], in assay [2] (50 mg/kg once daily p.o. d. 1-8, read d. 40-42), the “AIP Inhib. score (% Inhibition of paw edema) d. 40-42” value is on record as “++ +”. Further, in assay [2] (Rattus norvegicus, po, 480 h, 50 mg/kg once daily p.o. d. 1-8, read d. 20-22, read-out: AIP Inhib. score (% Inhibition of paw edema) d. 20-22), the inhibition in vivo at 50 mg/kg lay within 60 to 80%.

On to `N#CC(C(=O)NC1CCC1)C(=O)C1CC1` (stereo not drawn) [Example 6, α-Cyclobutylcarbamoyl-β-cyclopropyl-β-oxopropionitrile], for which the inhibition in vivo at 100 mg/kg in assay [2] (setting [4]) and in assay [2] (setting [5]) was 25 to 40% each time.

Turning to `CNC(=O)C(C#N)C(=O)C1CCC1` (stereo not drawn) [Example 7, β-Cyclobutyl-β-oxo-α-methylcarbamoylpropionitrile], the inhibition in vivo at 100 mg/kg was under 25% in assay [2] (setting [4]) and 25 to 40% in assay [2] (setting [5]).
